Among the data in PMC6934184, “Selective DNA-PKcs inhibition extends the therapeutic index of localized radiotherapy and chemotherapy” (The Journal of Clinical Investigation, 2019) are inhibition values, retold here.

The target of this test is T1, STK16 (PKL12) (Homo sapiens, UniProt O75716).
T1 construct: purchased Thermo Fisher Scientific (Life Technologies) SelectScreen
The test can be described thus: SelectScreen LanthaScreen. In kind it is binding. To be noted: read-out: % displacement. In a few lines:
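SelectScreen broad panel; activity (Z'LYTE, Adapta) plus binding formats. ATP: Km app for CSF1R Z'LYTE; 10 for CAMK1 Adapta. Readout = % per kinase.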
In general terms: Time-resolved FRET reads energy transfer from a long-lived donor to a nearby acceptor.

Molecules are shown by their SMILES.

T1 sequence (O75716 whole entry): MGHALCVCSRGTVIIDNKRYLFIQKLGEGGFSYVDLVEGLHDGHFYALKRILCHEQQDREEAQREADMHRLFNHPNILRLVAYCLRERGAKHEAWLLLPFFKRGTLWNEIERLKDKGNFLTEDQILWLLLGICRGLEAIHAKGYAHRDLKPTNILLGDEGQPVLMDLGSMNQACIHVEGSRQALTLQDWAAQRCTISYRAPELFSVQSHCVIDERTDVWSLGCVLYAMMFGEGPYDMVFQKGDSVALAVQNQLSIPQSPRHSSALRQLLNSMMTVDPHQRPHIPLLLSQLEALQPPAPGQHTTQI

Take `CN(C(=O)CN1CCOCC1)c1ccc2sc3c(-c4cccc5c(=O)cc(N6CC7CCC(C6)O7)oc45)cccc3c2c1` [NU5455]: the inhibition at 1 µM stood at 10.5%.
